From article PMC12583094, “A novel antioxidant peptide from black soybean [Glycine max (L.) Merr.] with verified MPO interaction and multi-scale antioxidant activity” (Frontiers in Nutrition, 2025)

Assays:
Format in all cases: cell-based, human
HaCaT cells [1] = assay: CCK8 cell viability, concentration screening in HaCaT cells; settings: 1 h
Method: (§1) HaCaT cell recovery, culture, and subculture were performed with reference to the method described by Yusha Zi et al., with some modifications ([23]). For recovery, cryopreserved HaCaT cells were retrieved from liquid nitrogen storage and quickly thawed in a 37 °C water bath with gentle shaking. Just before complete thawing, the tube was removed from the water bath, and the cell suspension was immediately transferred into a 15 mL centrifuge tube containing 9 mL of pre-warmed complete medium. The complete medium consisted of DMEM supplemented with 10% fetal bovine serum (FBS) and 1% penicillin–streptomycin (P/S). Cells were centrifuged at 800 rpm for 5 min at 4 °C. After discarding the supernatant, the cell pellet was resuspended in 5 mL of fresh complete medium and transferred to a culture flask equipped with a ventilated cap. Cells were incubated in a humidified incubator at 37 °C with 5% CO₂ and 95% humidity.
For subculturing, when cell confluence reached approximately 80%, the medium was discarded, and the cells were gently rinsed three times with 2 mL of PBS. Then, 1 mL of 0.25% trypsin solution was added, and the flask was incubated at 37 °C for about 1 min. Once the cells became round and partially detached (as observed under a microscope), 3 mL of complete medium was added to terminate the digestion. The cell suspension was gently pipetted to disperse the cells and transferred to a 15 mL centrifuge tube. After centrifugation at 800 rpm for 5 min at 4 °C, the supernatant was discarded. The pellet was resuspended in fresh medium and seeded into new culture flasks at a ratio of 1:3, followed by incubation under the same culture conditions.
After digestion and resuspension, HaCaT cells were seeded into a 96-well plate at a concentration of 1 × 10^^4 cells/ml, with 100 μL of complete culture medium added to each well. Three wells with no cells were treated with an equal volume of complete culture medium as the blank group. The cells were incubated for 24 h to allow attachment. For the experiment, the control and blank groups were replaced with an equal volume of fresh medium, while the treatment groups were treated with a concentration gradient of 100, 200, 500, 1,000, and 1,500 μg/mL H2O2 and peptide samples. The H2O2 group was incubated for 1 h, while the peptide sample group was incubated for 24 h. After incubation, the original medium was discarded, and 100 μL of CCK8 working solution (prepared from 90% DMEM + 10% CCK8 reagent) was added to each well. The blank group, which contained no cells, was used as the reference. The plate was incubated for an appropriate period, and the absorbance at 450 nm was measured using a microplate reader. Cell viability was calculated using the following formula:
Cell viability(%)=100%×(ODsample−ODblank)/(ODcontrol−ODblank).

HaCaT cells [2] = settings: 500 μg/mL H2O2 1 h, no peptide; CCK8, 450 nm; p < 0.0001 vs control; mean ± SD, n = 3
Method: as §1, with “humidity. For subculturing, when cell confluence reached approximately 80%, the medium was discarded, and the cells were gently rinsed three times with 2 mL of PBS. […] The plate was incubated for an appropriate period, and the absorbance at 450 nm was measured using a microplate reader. Cell viability was calculated using the following formula: Cell viability(%)=100%×(ODsample−ODblank)/(ODcontrol−ODblank). […] The absorbance was measured and cell viability was calculated under the same conditions.” for “humidity.”

HaCaT cells [3] = assay: ROS quantification in H2O2-treated HaCaT cells (DCFH-DA); settings: 500 μg/mL H2O2 1 h, no peptide; DCFH-DA fluorescence 488/525 nm normalized per mg protein; p < 0.0001 vs control (541.25 ± 25.03 AU); mean ± SD, n = 3
Method: After digestion and resuspension, HaCaT cells were seeded into a 6-well plate at a concentration of 1 × 10^4 cells/ml, with 2 mL of culture medium added to each well. The cells were incubated for 24 h to allow attachment and adaptation. After 24 h, the cells were divided into treatment groups. The control and blank groups were replaced with an equal volume of normal culture medium, while the treatment group was incubated with a 1,000 μg/mL peptide solution for 24 h. After that, both the control and treatment groups were treated with 500 μg/mL H2O2 and incubated for an additional 1 h.
After incubation, the medium was discarded, and DCFH-DA probe was diluted in serum-free medium at a 1:1000 ratio. Then, 1.5 mL of the diluted solution was added to each well, and the cells were incubated at 37 °C in the dark for 20 min. The blank group was treated with an equal volume of serum-free medium. […] The fluorescence intensity was measured using a fluorescence spectrophotometer with an excitation wavelength of 488 nm and an emission wavelength of 525 nm. The total protein concentration of each sample was determined using the BCA method. The fluorescence value was then normalized to the fluorescence intensity per milligram of protein, and the results were statistically analyzed.

**Q.** For `OO` [H₂O₂, hydrogen peroxide], which “effect on HaCaT cell viability at 200 μg/mL H2O2” value (HaCaT cells [1]; H2O2 200 μg/mL, CCK8, vs control, p < 0.01) is on record?
**A.** The value was “A significant reduction”.

**Q.** What about the “HaCaT cell viability after 500 μg/mL H2O2 (screening)” value (HaCaT cells [1]; H2O2 500 μg/mL, CCK8, 450 nm, mean ± SD, n = 3) of the same compound?
**A.** Its value is 49.05 ± 4.24%.

**Q.** What about the “dead HaCaT cells at 1500 μg/mL H2O2” value (HaCaT cells [1]; H2O2 1500 μg/mL, CCK8, 450 nm) of the same compound?
**A.** Its value is “over 90%”.

**Q.** And the “HaCaT cell viability, H2O2 alone” value (HaCaT cells [2])?
**A.** The value was 47.82 ± 1.87%.

**Q.** And the “ROS level, H2O2 alone” value (HaCaT cells [3])?
**A.** Its value is 2128.33 ± 127.37 AU.
